Data taken from US20030113322A1, “CDR-H1-derived peptide CB11, pharmaceutical compositions made therefrom and methods of treating disorders in mammals” (priority 2001, published 2003).
Positions of bridges follow the written chain, without caps; N, C: chain ends. Residues, ends and D or L forms follow the SMILES beside them. No end group written: not given here.

Columns and labels:
[1] = system: pdb10F T cells stimulated by pep24-pulsed EBV-Lu antigen-presenting cells; assay: IL-2 secretion assay following antigen presentation; assay type: cell-based, murine; details: for inhibition of IL2 secretion: Example 2, Table 1 (table not given)
His6-sCD4 = biological target: T1, His6-sCD4 (Homo sapiens, UniProt P01730); assay: ELISA binding of His6-sCD4 to coated cyclic PDPs; details: 20 nM His6-sCD4, FIG. 8
T1 construct: codons 1 to 6, and the anti-sense primer SCD4RTB (5′-[…]), which contains the reverse complement of codons 367 to 372; made in house; host or cells: Spodoptera frugiperda Sf9 cells, baculovirus (p119L vector, P10 promoter)
Method: Three replicates corresponding to 10-fold serial dilutions of the nine cyclic PDPs (CB1-CB9) were coated overnight at 4° C. onto 96-well ELISA plates (Nunc. Paisley, UK) with an initial peptide concentration of 50 μM. Four washes in 160 mM PBS, pH 7.2, containing 0.1% Tween 20 (PBS-T) were performed before and after saturating the wells with 1% non-fat dry milk in PBT-T for 1 h at 37° C. Thereafter, 100 μl of 20 nM His6-sCD4 was added to each well. Following a 2 h incubation and four washes in PBS-T, bound His6-sCD4 was detected by addition of 100 μl of a 1:2000 solution of peroxidase-conjugated anti-His6 mAb (Sigma) and subsequent addition of peroxidase substrate. Absorbance was measured at 490 nm.

[2] = system: HeLa P4 indicator cells infected with HIV-1Lai; assay: HIV-1 promoter activation assay (LTR-driven β-galactosidase); assay type: cell-based
Method: (§1) HeLa P4 indicator cells (8×10^4 cells/ml) were cultured in medium supplemented or not with infectious HIV-1Lai in the presence or absence of antibodies for three days, harvested and lysed. β-galactosidase activity was then determined as previously described by measuring the absorbance at 410 nm.
as §1, with “with 1000 TCID50 of” for “with”, “peptides or mAb” for “antibodies”, “3” for “three”, “lysed. The” for “lysed.”, “activities were” for “activity was”

[3] = assay type: in vitro ADME
Excerpt: A relatively high concentration of peptides is preferred to achieve efficient biological activity with regard to the efficient antibody dose. […] We believe that use of D-amino acids for peptide synthesis would improve their metabolic stability.

[4] = peptide diluted in 20% acetonitrile buffer

Row | Compound | inhibition of IL2 secretion [1] | CD4 binding of coated cyclic peptide (His6-sCD4) | inhibition of HIV-1Lai LTR-driven β-galactosidase expression ([2]; Example 2, 3 days, FIG. 10A) | inhibition of HIV-1Lai LTR-driven β-galactosidase expression [2, 4] | other results
1 | GSDQWNKMQYYP (not fully specified (N-terminus, C-terminus, bridges); also: cyclized (bridge not given here)) [ScCM9, scrambled form of PDP CM9, Lys-Cys added at both termini, reference compound] | no inhibition | non-reactivity | did not affect | – | –
2 | CC[C@H](C)[C@@H]1NC(=O)[C@@H](NC(=O)[C@@H](N)CCCCN)CSSC[C@@H](C(=O)N[C@@H](CCCCN)C(N)=O)NC(=O)[C@H](CCC(N)=O)NC(=O)[C@H](CCCCN)NC(=O)[C@H](CCC(N)=O)NC(=O)[C@H](CCC(N)=O)NC(=O)[C@H](Cc2ccc(O)cc2)NC(=O)[C@H](Cc2c[nH]c3ccccc23)NC(=O)[C@H](C)NC(=O)[C@H](CC(C)C)NC(=O)[C@H](Cc2ccc(O)cc2)NC(=O)[C@H](CO)NC(=O)[C@H](Cc2ccc(O)cc2)NC1=O [CB8] (H-KCIYSYLAWYQQKQCK-NH2; disulfide 2-15) | lack of activity | – | – | lack of activity | –
3 | FGDYYCLQYASS (not fully specified (N-terminus, C-terminus, bridges); also: cyclized (bridge not given here)) [Dig97c, unrelated peptide derived from the CDR-L3 region of the anti-digoxin 1C10 mAb, reference compound] | – | – | did not affect | – | –
4 | KEEICEVEDQTY (not fully specified (N-terminus, C-terminus, bridges); also: cyclized (bridge not given here)) [ScCDR3-like, scrambled form of the CD4-derived CDR3-like peptide] | – | non-reactivity | – | – | –
5 | CC(C)C[C@@H]1NC(=O)[C@@H](NC(=O)[C@@H](N)CCCCN)CSSC[C@@H](C(=O)N[C@@H](CCCCN)C(N)=O)NC(=O)[C@H](CO)NC(=O)[C@H](CCC(N)=O)NC(=O)[C@H](CCCNC(=N)N)NC(=O)[C@H](C(C)C)NC(=O)[C@H](Cc2c[nH]c3ccccc23)NC(=O)[C@H](Cc2c[nH]cn2)NC(=O)[C@H](C(C)C)NC(=O)CNC(=O)[C@H](Cc2ccccc2)NC(=O)[C@H]([C@@H](C)O)NC(=O)[C@H]([C@@H](C)O)NC1=O [CB1] (H-KCLTTFGVHWVRQSCK-NH2; disulfide 2-15; N-terminus and C-terminus assumed) | – | – | – | no inhibition | concentration range with inhibitory activity of IL2 secretion ([1]; Example 2): 125 to 250 µM; decrease in binding of CD4 to peptide after pre-incubation [3]: 50%; inhibition of HIV-1Lai LTR-driven β-galactosidase expression ([2]; 50 μM peptide, 3 days, FIG. 10A): significant inhibition; IC50 ([2]; FIG. 10B, read-out: IC50 of inhibition of β-galactosidase activity): ~15 µM
